Assay results taken from patent publication EP0411593A2, “Use of bis (aminothiocarbonyl) disulfide for treating ulcer” (KURARAY CO., LTD., priority 1989, dated 1991).

What was measured:
[1] = Acute toxicity through oral administration; conditions: mouse, in vivo, male ICR-strain mice (5 weeks old), read-out: LD₅₀
Procedure: Acute toxicity tests through oral administration were carried out using male ICR-strain mice (5 weeks old).
The LD₅₀ values of the compound (1) of the present invention was 2000 mg/kg or more and thus higher saftety as compared with the effective amount was ascertained.

[2] = tested on: HCl-ethanol induced ulcer; test: Antiulcer activity (HCl-ethanol ulcer), oral administration; format: in vivo; conditions: rats, inhibition of ulcer coefficient vs control; for Inhibitation Rate (%): dose 5 mg/kg orally one hour before HCl-ethanol
Procedure: Antiulcer activity (HCl-ethanol ulcer) 1.5 ml of 60% ethanol aqueous solution containing 150 mM of hydrochloric acid was orally administered to rats. One hour thereafter the rats were sacrificed and the length (mm) of HCl-ethanol induced ulcer generated at the mucosa of the stomach was measured. The sum of the ulcer length per animal is defined as ulcer coefficient. Specimens each was orally administered one hour before the HCl-ethanol administration. Inhibition rate was calculated by dividing the difference in ulcer coefficient between the control group and the specimen-administered group by the ulcer coefficient of the control group.

Compound | Inhibitation Rate (%) [2] | other results
S=C(SSC(=S)N1CCOCC1)N1CCOCC1 [Compound Number (1)] | 93.7% | LD50 [1]: ≥ 2000 mg/kg
CC1CN(C(=S)SSC(=S)N2CC(C)OC(C)C2)CC(C)O1 (centres unmarked) [Compound Number (2)] | 81.7% | –
OCCN1CCN(C(=S)SSC(=S)N2CCN(CCO)CC2)CC1 [Compound Number (3)] | 24.3% | –
S=C(SSC(=S)N1CCCCC1)N1CCCCC1 [Compound Number (4)] | 64.1% | –
OCCC1CCN(C(=S)SSC(=S)N2CCC(CCO)CC2)CC1 [Compound Number (5), bis[[4-(2-hydroxyethyl)piperidiono]thiocarbonyl]disulfide] | 37.4% | –
CC(=O)c1ccc2c(c1)C(=O)C1(CC1)O2 [Spizofurone, reference compound] | – | Inhibiton Rate (%) ([2]; dose 100 mg/kg orally one hour before HCl-ethanol): 86.6%
Teprenone [reference compound] | – | Inhibiton Rate (%) ([2]; dose 25 mg/kg orally one hour before HCl-ethanol): 48.9%
